{
  "source": "paper PMC8026324",
  "about": "“In Vitro Antiplasmodial, Heme Polymerization, and Cytotoxicity of Hydroxyxanthone Derivatives” (Journal of Tropical Medicine, 2021)",
  "key": {"[1]": {"tested_on": "Plasmodium falciparum FCR-3 (chloroquine-resistant strain)", "assay": "In vitro antiplasmodial activity assay, microscopic method, strain FCR-3", "format": "cell-based", "in_short": "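Sorbitol-synchronized ring-stage parasites at 1% parasitemia, 2% haematocrit in RPMI with 10% human O serum, exposed to compound dilutions in triplicate for 72 h at 37 °C. Parasitemia counted on Giemsa smears (≥1,000 erythrocytes); IC50 from growth inhibition by probit analysis.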"}, "Vero cells": {"tested_on": "Vero cells", "assay": "In vitro cytotoxicity test, MTT assay on Vero cell line", "format": "cell-based", "details": "for IC50: MTT assay", "procedure": "The in vitro cytotoxicity test was conducted using the 3-(4,5-dimethylthiazol-2-yl)2,5-diphenyltetrazolium bromide (MTT) assay method on Vero cell line culture using the Anderson et al.'s modified method.\nThe cell was removed from the cryo medium. Then, the cell was thawed at 37°C. The liquid cell was subsequently transferred to the tube and a culture medium was added to a volume of 10 mL. Then, the suspension was centrifuged for 15 minutes so that it would form cell pellets. The supernatant was removed and 1 mL of culture medium was added to the cell pellets. Finally, the suspension was transferred to the Petri dish and incubated in the incubator with 5% of CO2 at 37°C.\nThe medium of Vero cell culture was removed, and then the cell was washed using a PBS solution with a volume of PBS ± 1/2 of the initial medium volume. This step was done twice and 1 mL of trypsin 0.25% was added. Subsequently, the cell was incubated in the CO2 incubator at 37°C for 3 minutes. Then, the cell was resuspended using 2 mL of culture medium and PBS solution was added up to 10 mL. The suspension was centrifuged for 15 minutes so that it formed pellets. Pellets were added with 1 mL of culture medium and resuspended. Take 10 μL of the cell suspension and density of cells was calculated.\nThen, the cell was added with culture medium to 10 mL. A total of 100 μL of such suspensions was transferred into each well of the 96-well microplate, but three of the wells were emptied as medium controls. Subsequently, the microplate was incubated in a 5% CO2 incubator at 37°C.\nEach hydroxyxanthone derivative compound was dissolved in DMSO, and a variety of concentrations were prepared in the medium. Each concentration of the testing compound was added into the 96-well microplate triplicately. Cell control and medium control were not given a testing compound solution. The medium control remained blank, while the cell control contained culture medium only. […] Then, the cell was incubated in a 5% CO2 incubator at 37°C for 24 hours.\nAfter the cell was incubated for 24 hours, the medium was discarded and washed with PBS. Then, each well was added with 100 μL of 5 mg/mL of MTT solution. The 96-well microplate was incubated again in the incubator of CO2 at 37°C for 4 hours. Then, 100 μL of 10% of SDS in 0.01 MHCl was added. The cells were placed in a dark room at room temperature for 24 hours.\nThe absorbance was measured using the enzyme-linked immunosorbent assay (ELISA) reader at 595 nm wavelength. The cytotoxicity test on the Vero cells was done by calculating the percentage of Vero cell inhibition of the absorption value of the test compound, cell control, and medium control. The cytotoxic effect was expressed as IC50. The IC50 value was obtained from the probit analysis by using SPSS software (IBM Corp., Chicago). The degree of selectivity was expressed as a selectivity index. The selectivity index was obtained from the ratio between the IC50 cytotoxic effect on Vero cells and IC50 antiplasmodial activity on Plasmodium. A compound is said to be safe if the value of the selectivity index is >10 [20]."}},
  "data": [
    {"compound": "O=c1c2c(O)cccc2oc2cc(O)cc(O)c12", "note": "[HX1, 1,6,8-trihydroxyxanthone]", "values": [
      {"measurement": "inhibition at 6.39 µM", "setting": "[1]; Plasmodium falciparum, FCR3, 6.39 μM, read-out: Growth inhibition of P. falciparum Strain FCR-3", "value": "50.9 ± 2.31", "unit": "%"},
      {"measurement": "inhibition at 12.8 µM", "setting": "[1]; Plasmodium falciparum, FCR3, 12.8 μM, read-out: Growth inhibition of P. falciparum Strain FCR-3", "value": "55.2 ± 3.59", "unit": "%"},
      {"measurement": "inhibition at 25.59 µM", "setting": "[1]; Plasmodium falciparum, FCR3, 25.59 μM, read-out: Growth inhibition of P. falciparum Strain FCR-3", "value": "60.2 ± 2.74", "unit": "%"},
      {"measurement": "inhibition at 51.19 µM", "setting": "[1]; Plasmodium falciparum, FCR3, 51.19 μM, read-out: Growth inhibition of P. falciparum Strain FCR-3", "value": "64.4 ± 0.671", "unit": "%"},
      {"measurement": "inhibition at 102.38 µM", "setting": "[1]; Plasmodium falciparum, FCR3, 102.38 μM, read-out: Growth inhibition of P. falciparum Strain FCR-3", "value": "73.7 ± 4.28", "unit": "%"},
      {"measurement": "IC50", "setting": "[1]; Plasmodium falciparum, FCR3, 72 hours incubation, microscopic method, read-out: IC50 on P. falciparum FCR-3", "value": "0.00676 ± 0.00238", "unit": "mM"},
      {"measurement": "antiplasmodial activity category on P. falciparum FCR-3", "setting": "[1]; category by IC50", "value": "good (good (IC50 1–20 μM))"},
      {"measurement": "IC50", "setting": "Vero cells; 24 hours incubation", "value": "3.39 ± 0.435", "unit": "mM"},
      {"measurement": "IC50", "setting": "Vero cells; Chlorocebus sabaeus, Vero, 24 h, 24 hours incubation", "value": 3.28, "unit": "mM"},
      {"measurement": "inhibition at 255.94 µM", "setting": "Vero cells; Chlorocebus sabaeus, Vero, 24 h, 255.94 μM, read-out: Vero cell growth inhibition after 24 hours incubation", "value": "-50.3 ± 17.2", "unit": "%"},
      {"measurement": "inhibition at 511.88 µM", "setting": "Vero cells; Chlorocebus sabaeus, Vero, 24 h, 511.88 μM, read-out: Vero cell growth inhibition after 24 hours incubation", "value": "-4.13 ± 8.21", "unit": "%"},
      {"measurement": "inhibition at 1023.75 µM", "setting": "Vero cells; Chlorocebus sabaeus, Vero, 24 h, 1023.75 μM, read-out: Vero cell growth inhibition after 24 hours incubation", "value": "15.9 ± 8.24", "unit": "%"},
      {"measurement": "inhibition at 2047.5 µM", "setting": "Vero cells; Chlorocebus sabaeus, Vero, 24 h, 2047.50 μM, read-out: Vero cell growth inhibition after 24 hours incubation", "value": "28 ± 5.69", "unit": "%"},
      {"measurement": "inhibition at 4095 µM", "setting": "Vero cells; Chlorocebus sabaeus, Vero, 24 h, 4095.00 μM, read-out: Vero cell growth inhibition after 24 hours incubation", "value": "45.9 ± 5.51", "unit": "%"},
      {"measurement": "inhibition at 8190.01 µM", "setting": "Vero cells; Chlorocebus sabaeus, Vero, 24 h, 8190.01 μM, read-out: Vero cell growth inhibition after 24 hours incubation", "value": "89.4 ± 1.9", "unit": "%"},
      {"measurement": "IC50", "setting": "Vero cells; Chlorocebus sabaeus, Vero", "value": 802, "unit": "µg/mL"},
      {"measurement": "Selectivity index (over strains 3D-7 and FCR-3)", "setting": "Vero cells; cytotoxicity/antiplasmodium ratio on P. falciparum 3D-7 and FCR-3", "value": "more than 10"},
      {"measurement": "Selectivity index 3D-7", "setting": "Vero cells; ratio IC50 on Vero cell/IC50 on P. falciparum 3D-7", "value": 556.54},
      {"measurement": "Selectivity index FCR-3", "setting": "Vero cells; ratio IC50 on Vero cell/IC50 on P. falciparum FCR-3", "value": 502.20}
    ]}
  ]
}
